{"source": "patent US20050009151A1", "about": "“Methods for the stereospecific and enantiomeric enrichment of beta-amino acids” (Pharmacia Corporation, priority 2003, published 2005)", "key": {"[1]": {"test_system": "β-aminotransferase enzyme from Variovorax paradoxus (CC-KGbPHe-I14)", "test": "D-β-aminotransferase keto acid substrate specificity", "assay_type": "biochemical", "details": "rate of conversion of D-β-phenylalanine to 3-keto-3-phenylpropionic acid as percent of the rate using α-ketoglutarate; 10 mg/ml α-keto acceptor, 1 hour, 37° C.", "protocol": "Semi-purified β-aminotransferase enzyme from Variovorax paradoxus (CC-KGbPHe-I14) was assayed using D-β-phenylalanine as the amino donor, in an assay consisting of 100 mM potassium phosphate, 2 mg/ml DL-β-phenylalanine, 10 mg/ml α-keto acceptor and 0.1 mM pyridoxal phosphate, at pH 8.0. The reactions were run at 37° C. with mild stirring for 1 hour. At 1 hour reaction time, 0.1 ml samples were withdrawn, acidified with addition of 0.1 ml 0.1N HCl, and centrifuged. The supernatant solution was collected into HPLC sample vials. Conversion of DL-β-phenylalanine to 3-keto-3-phenylpropionate was quantified using reverse phase HPLC. The following keto acids were screened for activity: α-ketoglutaric acid, oxaloacetic acid, pyruvic acid, 3-oxoadipic acid, 2-oxoadipic acid, 1,3-acetonedicarboxylic acid, and 4-ketopimelic acid. The relative rates of conversion of D-β-phenylalanine to 3-keto-3-phenylpropionic acid using the various keto acceptors is reported as percent of the rate using α-ketoglutarate, the experimentally determined preferred acceptor."}, "[2]": {"test_system": "Alcaligenes eutrophus L-β-aminotransferase", "test": "Substrate specificity of Alcaligenes eutrophus L-β-aminotransferase (crude cell homogenate)", "assay_type": "biochemical", "details": "for MSB Culture Extract D(S)-b-Phe consumed at t = 1 Hr / MSB Culture Extract L(R)-b-Phe consumed at t = 1 Hr: cells grown in MSB; for MSB Culture Extract D(S)-b-Phe consumed at t = 1 Hr / MSB Culture Extract L(R)-b-Phe consumed at t = 1 Hr / NB Culture Extract of Alcaligenes eutrophus D(S)-b-Phe consumed at t = 1 Hr / NB Culture Extract of Alcaligenes eutrophus L(R)-b-Phe consumed at t = 1 Hr: keto acceptor with or without PLP as labelled; for NB Culture Extract of Alcaligenes eutrophus D(S)-b-Phe consumed at t = 1 Hr / NB Culture Extract of Alcaligenes eutrophus L(R)-b-Phe consumed at t = 1 Hr: cells grown in NB", "protocol": "Cell-free homogenates were used in assays designed to determine substrate specificity. The assays contained: 0.1-0.3 mg/ml protein, 10 mg/ml keto acceptor, 1 mg/ml amino donor, 0.1 mM pyridoxal phosphate, and 100 mM potassium phosphate, at pH 8.0. The reactions were run at 37° C. with gentle stirring for 1 hour. At 1 hour reaction time, 0.1 ml samples were withdrawn, acidified with addition of 0.1 ml 0.1N HCl, and centrifuged. The supernatant solution was collected into HPLC sample vials. Conversion of amino acid to the corresponding ketone was quantified using reverse phase HPLC. Enzymatic activity was measured as the rate of conversion of amino donor in a one hour period. In a series of reactions, the enzymatic activity was determined with the following variables: inclusion or omission of pyridoxal phosphate, using α-ketoglutarate or pyruvate as a keto acceptor, and (D)- or (L)-β-phenylalanine as amino donor."}, "[3]": {"test_system": "Variovorax paradoxus β-aminotransferase", "test": "Synthesis of β-amino acid from β-keto acid with Variovorax paradoxus β-aminotransferase", "assay_type": "biochemical", "protocol": "(§1) A buffer consisting of 0.3M Tricine, 15 mM MgSO4, enough pyridoxal phosphate to impart a pale yellow color and 0.3M sodium glutamate (for deamination reactions) or 0.3 M 2-ketoglutarate monopotassium salt (for synthesis reactions) was prepared.\nOne part buffer was combined with two parts lysate and this mixture was then added to pre-weighed substrate to give a concentration of 1 mg/ml substrate. Reactions were typically run at 1 ml scale with gentle shaking at 26° C.\n(§2) 10 ul of 2N HCl was added to a plastic screw capped vial and 90ul of sample was then added. The pH of the mixture confirmed to be below 4 and the mixture was centrifuged in a microcentrifuge at maximum speed for about 2 minutes to remove precipitated materials.\n(§3) Samples were derivatized using Marfey's reagent, N•-(2,4-dinitro-5-fluorophenyl)-L-alaninamide. A stock solution of 10 mg/mL in acetone of this reagent was prepared. Either 20 or 40 ul of bioconversion sample was added to 20 ul 1.3 M KHCO3. To this was added 80 ul of the stock reagent solution, the vial sealed tightly, and heated at 70° C. for 10 minutes. As needed, after cooling to room temperature, the heated samples were centrifuged to remove solids. The supernatants were analyzed using an Eclipse XDB-C8 column, 4.6×150 mm, eluting with methanol gradient in water, from 50% methanol to 100% methanol. Both solvents were acidified with 0.1% trifluoroacetic acid.\nFor synthesis experiments, in which β-keto acid was converted to β-amino acid, the area of the peak(s) was compared to a standard curve derived for β-phenylalanine."}, "[4]": {"test_system": "Alcaligenes eutrophus L-β-aminotransferase", "test": "Amino donor screen, production of β-phenylalanine from 3-keto-3-phenylpropionic acid", "assay_type": "biochemical", "details": "200 mM amino donor, pyruvate decarboxylase, 24 hours", "protocol": "The assays contained: 0.1-0.3 mg/ml protein, 10 mg/ml keto acceptor, 200 mM amino donor, 0.1 mM pyridoxal phosphate, and 100 mM potassium phosphate, at pH 8.0. 0.1 units of pyruvate decarboxylase was included to prevent the reversible reaction from reaching equilibrium. The reactions were run at 37° C. with gentle stirring for 24 hours. At 24 hours reaction time, 0.1 ml samples were withdrawn, acidified with addition of 0.1 ml 0.1N HCl, and centrifuged. The supernatant solution was collected into HPLC sample vials. Conversion of amino acid to the corresponding ketone was quantified using reverse phase HPLC. Amino donors screened were (L)-alanine, (D)-alanine, and β-alanine."}, "[5]": {"test_system": "α-alanine aminotransferase", "details": "J. Biochem 81, 1375-1381, 1977; cited from earlier work"}, "[6]": {"test_system": "gamma aminobutyrate transaminase", "details": "J. Biochem 81, 1375-1381, 1977; cited from earlier work"}, "[7]": {"test_system": "β-aminotransferase from Alcaligenes eutrophus", "test": "Synthesis of β-amino acid from β-keto acid with cell lysate from Alcaligenes eutrophus", "assay_type": "biochemical", "details": "approximately 45 mM substrate, approximately 84 mM alanine, 47 hours", "protocol": "as §1\n[…] Reactions were typically run at 1 ml scale with gentle shaking at 26° C.\nas §2\nas §3, with “acid. […]” for “acid.”"}, "[8]": {"test_system": "β-aminotransferase enzyme from Variovorax paradoxus", "test": "D-β-aminotransferase amino donor specificity", "assay_type": "biochemical", "details": "2 mg/ml amino donor, 10 mg/ml α-ketoglutarate, 1 hour, 37° C.", "protocol": "The same preparation of semi-purified β-aminotransferase enzyme from Variovorax paradoxus was then assayed using a-ketoglutarate as the keto acceptor, in an assay consisting of 100 mM potassium phosphate, 10 mg/ml α-ketoglutarate, 2 mg/ml amino donor and 0.1 mM pyridoxal phosphate, at pH 8.0. The reactions were run at 37° C. with mild stirring for 1 hour. At 1 hour reaction time, 0.1 ml samples were withdrawn, acidified with addition of 0.1 ml 0.1N HCl, and centrifuged. The supernatant solution was collected into HPLC sample vials. Conversion of an amino acid to the corresponding ketone was quantified using reverse phase HPLC. The following amino acids (as an amino donor) were screened for activity: α-(D)-phenylalanine, α-(L)-phenylalanine, β-(D)-phenylalanine, β-(L)-phenylalanine, (D)-3-amino-5-phenylpentanoic acid, and (L)-3-amino-5-phenylpentantoic acid."}, "[9]": {"details": "sodium sulfate purified β-aminotransferase, 3 hours"}}, "data": [{"smiles": "O=C(O)CCC(=O)C(=O)O", "note": "[α-ketoglutarate]", "values": [{"measurement": "Relative Activity", "setting": "[1]", "result": 100, "unit": "%"}, {"measurement": "MSB Culture Extract D(S)-b-Phe consumed at t = 1 Hr", "setting": "[2]", "result": 0.966}, {"measurement": "MSB Culture Extract L(R)-b-Phe consumed at t = 1 Hr", "setting": "[2]", "result": 6.9281}, {"measurement": "NB Culture Extract of Alcaligenes eutrophus D(S)-b-Phe consumed at t = 1 Hr", "setting": "[2]", "result": 0.00}, {"measurement": "NB Culture Extract of Alcaligenes eutrophus L(R)-b-Phe consumed at t = 1 Hr", "setting": "[2]", "result": 3.41}]}, {"smiles": "O=C(O)CC(=O)C(=O)O", "note": "[Oxaloacetic Acid]", "values": [{"measurement": "Relative Activity", "setting": "[1]", "result": 54, "unit": "%"}]}, {"smiles": "CCCC(=O)CC(=O)O", "note": "[3-Oxohexanoic acid]", "values": [{"measurement": "product stereoisomer peak observed", "setting": "[3]; cell lysate, 19 hours", "result": "only later eluting peak was observed"}, {"measurement": "3-aminohexanoic acid formed, using beta-phenylalanine as standard", "setting": "[3]; cell lysate, approximately 50 mM substrate, approximately 60 mM glutamic acid, 19 hours", "result": "approximately 1 mg/mL"}]}, {"smiles": "C[C@H](N)C(=O)O", "note": "[(L)-alanine]", "values": [{"measurement": "utilized by the enzyme as an amino donor in the production of β-phenylalanine", "setting": "[4]", "result": "utilized by the enzyme as an amino donor"}]}, {"smiles": "O=C(O)C(=O)Cc1ccccc1F", "note": "[o-fluoro-phenyl-2-oxopropanoic acid]", "values": [{"measurement": "product stereoisomer peak observed", "setting": "[3]; [9]", "result": "only later eluting peak was observed"}, {"measurement": "β-amino acid formed, using β-phenylalanine as standard", "setting": "[3]; [9]", "result": "approximately 0.02 mg/mL"}]}, {"smiles": "NCCC(=O)O", "note": "[β-alanine]", "values": [{"measurement": "utilized by the enzyme as an amino donor in the production of β-phenylalanine", "setting": "[4]", "result": "Only (L)-alanine was utilized by the enzyme"}, {"measurement": "activity on substrate", "setting": "[5]", "result": 100}, {"measurement": "activity on substrate", "setting": "[6]", "result": 3}]}, {"smiles": "CC(=O)C(=O)O", "note": "[Pyruvic Acid]", "values": [{"measurement": "Relative Activity", "setting": "[1]", "result": 14, "unit": "%"}, {"measurement": "MSB Culture Extract D(S)-b-Phe consumed at t = 1 Hr", "setting": "[2]", "result": 7.789}, {"measurement": "MSB Culture Extract L(R)-b-Phe consumed at t = 1 Hr", "setting": "[2]", "result": 45.1865}, {"measurement": "NB Culture Extract of Alcaligenes eutrophus D(S)-b-Phe consumed at t = 1 Hr", "setting": "[2]", "result": 3.37}, {"measurement": "NB Culture Extract of Alcaligenes eutrophus L(R)-b-Phe consumed at t = 1 Hr", "setting": "[2]", "result": 48.61}]}, {"smiles": "O=C(O)CC(=O)c1ccccc1F", "note": "[3-(2-Fluorobenzene)beta-oxopropanoic acid]", "values": [{"measurement": "2-fluoro-beta-phenylalanine formed, using beta-phenylalanine as standard", "setting": "[7]", "result": "approximately 0.1 mg/mL"}]}, {"smiles": "O=C(O)CCC(=O)CCC(=O)O", "note": "[4-Ketopimelic Acid]", "values": [{"measurement": "Relative Activity", "setting": "[1]", "result": 0, "unit": "%"}]}, {"smiles": "N[C@H](CC(=O)O)c1ccccc1", "note": "[β-(L)-phenylalanine, L- or (R)-3-amino-3-phenylpropionic acid]", "values": [{"measurement": "substrate for the enzyme (amino donor)", "setting": "[8]", "result": "Only β-(D)-phenylalanine and (D)-3-amino-5-phenylpenantoic acid were substrates"}, {"measurement": "preference of the enzyme for the enantiomer", "setting": "[2]; enzyme preferring pyruvic acid as amino acceptor, no activity on the D-enantiomer", "result": 100, "unit": "%"}]}, {"smiles": "O=C(O)CCCC(=O)C(=O)O", "note": "[2-Oxoadipic Acid]", "values": [{"measurement": "Relative Activity", "setting": "[1]", "result": 0.6, "unit": "%"}]}, {"smiles": "C[C@@H](N)C(=O)O", "note": "[(D)-alanine]", "values": [{"measurement": "utilized by the enzyme as an amino donor in the production of β-phenylalanine", "setting": "[4]", "result": "Only (L)-alanine was utilized by the enzyme"}]}, {"smiles": "O=C(O)CCC(=O)CC(=O)O", "note": "[3-Oxoadipic Acid]", "values": [{"measurement": "Relative Activity", "setting": "[1]", "result": 6, "unit": "%"}]}, {"smiles": "NCCCC(=O)O", "note": "[gamma aminobutyrate]", "values": [{"measurement": "activity on substrate", "setting": "[5]", "result": 43}, {"measurement": "activity on substrate", "setting": "[6]", "result": 100}]}, {"smiles": "O=C(O)CC(=O)CC(=O)O", "note": "[1,3-Acetonedicarboxylic Acid]", "values": [{"measurement": "Relative Activity", "setting": "[1]", "result": 0, "unit": "%"}]}]}
